# Results reported in US20060019907A1, “Guggulsterone: an inhibitor of nuclear factor - kappaB and IkappaBalpha kinase activation and uses thereof” (Research Development Foundation, priority 2004, published 2006).
# Assays:
# [1] = test system: RAW 264.7 cells; assay: Tumor cell (MDA-MB-468, U266) co-incubation-induced osteoclastogenesis; type: cell-based, mouse; conditions: RAW 264.7 co-incubation, GS 5 μM
# [2] = test system: COX-2, MMP-9, VEGF, cyclin D1, c-myc, cIAP1, xIAP, Bfl-1, BCL-2, TRAF1, cFLIP, survivin; assay: TNF-induced expression of NF-κB regulated gene products, Western blot; type: cell-based, human; conditions: H1299, 50 μM, 0.1 nM TNF
# Protocol: (§1) Western Blot Analysis: To determine the effect of guggulsterone on TNF-dependent IκBα phosphorylation, IκBα degradation, p65 translocation and p65 phosphorylation, cytoplasmic extracts were prepared as previously described (Majumdar et al., 2001) from H1299 (2×10^6/ml) pretreated with 50 μM guggulsterone for 4 h and then exposed to 0.1 nM TNF for various times. Thirty micrograms of cytoplasmic protein was resolved on 10% SDS-PAGE gel, transferred to a nitrocellulose membrane, blocked with 5% non-fat milk, and probed with specific antibody against IκBα, posphorylated IκBα, p65 and phosphorylated p65. To determine the expression of cyclin D1, COX-2, MMP-9, clAP-1, xlAP, TRAF1, Bcl-2, Bfl-1, cFLIP, and survivin, whole-cell extracts were prepared from treated cells (2×10^6 cells in 2 ml medium), 30-50 μg protein was resolved on SDS-PAGE gel and probed by Western blot with specific antibodies as per manufacturer's recommended protocol. The blots were washed, exposed to HRP-conjugated secondary antibodies for 1 hour, and finally detected by ECL reagent (Amersham Pharmacia Biotech.). The bands were quantitated using a Personal Densitometer Scan v1.30 using IMAGEQUANT™ software version 3.3 (Molecular Dynamics).
# [3] = test system: KBM-5 cells; assay: Live and Dead (calcein AM) assay, TNF plus guggulsterone; type: cell-based, human; conditions: TNF in combination with guggulsterone, 24 hours
# From the text: Live and Dead Assay: To measure apoptosis, the Live and Dead assay (Molecular Probes) was used, which determines intracellular esterase activity and plasma membrane integrity. This assay employs calcein, a polyanionic dye, which is retained within the live cells and provides green fluorescence. It also employs the ethidium […] dye (red fluorescence), which can enter the cells only through damaged membranes and bind to nucleic acids but is excluded by the intact plasma membrane of live cells. Briefly, 1×10^5 cells are incubated with 10 μM guggulsterone for 24 h and then treated with 1 nM TNF for 16 hours at 37° C. Cells are stained with the Live and Dead reagent (5 μM ethidium homodimer, 5 μM calcein-AM) and then incubated at 37° C. for 30 min. Cells were analyzed under a fluorescence microscope (Labophot-2).
# [4] = test system: bile salt export pump; conditions: Cui et al., 2003; cited from earlier work
# [5] = test system: NF-κB; assay: Constitutively active NF-κB by EMSA in U266 and MDA 1986 tumor cells; type: cell-based, human; conditions: 50 μM, 4 hours
# Protocol: NF-κB Activation: To determine NF-κB activation, EMSA was carried out as previously described (Chaturvedi et al., 2000). Briefly, nuclear extracts prepared from cells (2×10^6/ml) treated with TNF were incubated with ^32P-end-labeled 45-mer double-stranded NF-κB oligonucleotide (8 μg of protein with […] of DNA) from the human immunodeficiency virus long terminal repeat, 5′-[…] GGCGTGG-3′ (SEQ ID NO:1) (boldface indicates NF-κB binding sites), for 15 min at 37° C. The DNA-protein complex formed was separated from free oligonucleotide on 6.6% native polyacrylamide gels. A double-stranded mutated oligonucleotide, 5′-[…]-3′ (SEQ ID NO:2), was used to examine the specificity of binding of NF-κB to the DNA. The specificity of binding was also examined by competition with the unlabeled oligonucleotide. For supershift assays, nuclear extracts prepared from TNF-treated cells were incubated with antibodies against either the p50 or the p65 subunit of NF-κB for 30 min at room temperature before the complex was analyzed by EMSA. The dried gels were visualized, and radioactive bands were quantitated using a PHOSPHORIMAGER™ (Molecular Dynamics, Sunnyvale, Calif.) using IMAGEQUANT™ software.
# [6] = test system: U937 cells; assay: Annexin V and TUNEL assays; type: cell-based, human
# Protocol: Annexin V Assay. One of the early indicators of apoptosis is the rapid translocation and accumulation of the membrane phospholipid phosphatidylserine from the cell's cytoplasmic interface to the extracellular surface. This loss of membrane asymmetry can be detected using the binding properties of annexin V. To detect apoptosis, annexin V antibody conjugated with the fluorescent dye FITC was used. Briefly, 1×10^6 cells were pretreated with 10 μM guggulsterone for various time points and then subjected to annexin V staining. Cells were washed, stained with FITC-conjugated anti-annexin V antibody, and then analyzed with a flow cytometer (FACSCalibur; BD Biosciences). TUNEL Assay. Apoptosis was also assessed by the terminal deoxynucleotidyl transferase-mediated deoxyuridine triphosphate nick end-labeling (TUNEL) method, which examines DNA strand breaks that occur during apoptosis, using an in situ cell death detection reagent (Roche Molecular Biochemicals, Mannheim, Germany). Assays were performed using 5×10^5 cells that were incubated with 10 μM guggulsterone for 24 h and then fixed with 4% paraformaldehyde, and permeabilized with 0.1% Triton-X 100 in 0.1% sodium citrate. After being washed, the cells were incubated with reaction mixture for 60 min at 37° C. Stained cells were analyzed with a flow cytometer (FACSCalibur).
# [7] = test system: p65; assay: TNF-induced phosphorylation and nuclear translocation of p65; type: cell-based, human; conditions: H1299, 50 μM, 4 hours, 0.1 nM TNF
# Protocol: as §1
# Immunolocalization of NF-κB p65: The effect of guggulsterone on […] nuclear translocation of p65 was examined using an immunocytochemical method as described previously (Bharti et al., 2003). Stained slides were mounted with mounting medium (Sigma Chemical) and analyzed under an epifluorescence microscope (Labophot-2; Nikon, Tokyo, Japan). Images were captured using a PHOTOMETRICS COOLSNAP CF™ color camera (Nikon, Lewisville, Tex.) and METAMORPH™ version 4.6.5 software (Universal Imaging, Downingtown, Pa.).
# [8] = test system: PARP; assay: PARP cleavage assay, TNF plus guggulsterone; type: cell-based, human; conditions: KBM-5, serum starved 24 hours; TNF in combination with guggulsterone
# Protocol: PARP cleavage assay: For detection of cleavage products of PARP, whole-cell extracts were prepared by subjecting the guggulsterone-treated cells to lysis in lysis buffer (20 mM Tris, pH 7.4; 250 mM NaCI; 2 mM EDTA, pH 8.0; 0.1% Triton-X 100; 0.01 μg/ml aprotinin; 0.005 μg/ml leupeptin; 0.4 mM PMSF; and 4 mM NaVO4). Lysates will be spun at 14000 rpm for 10 min to remove insoluble material, resolved by 10% SDS PAGE, and probed with PARP antibodies. PARP is cleaved from the 116-kDa intact protein into 85-kDa and […] peptide products. To detect cleavage products of procaspase-3 and procaspase-9, whole-cell extracts will be resolved by 10% SDS PAGE and probed with appropriate antibodies.
smiles,measurement,setting,value
"CC=C1C(=O)C[C@H]2[C@@H]3CCC4=CC(=O)CC[C@]4(C)[C@H]3CC[C@]12C [guggulsterone, 4,17(20)-pregnadiene-3,16-dione]",osteoclast differentiation induced by co-incubation of U266 cells with macrophages,[1],induced osteoclast differentiation was suppressed
same,MDA-MB-468 cells-induced and U266 cells-induced osteoclast differentiation,[1]; 5 days,suppressed osteoclastogenesis
same,"TNF-induced COX-2, MMP-9 and VEGF expression",[2]; 4 h,abolished the TNF-induced expression of these gene products
same,TNF-induced cyclin D1 and c-myc expression,[2]; 4 hours,abolished the expression of these gene products
same,"TNF-induced expression of cIAP1, xIAP, Bfl-1, BCL-2, TRAF1, cFLIP and survivin",[2]; 4 hours,this expression was inhibited
same,"TNF-induced apoptosis, calcein AM-based live/dead assay",[3],TNF-induced apoptosis was significantly enhanced
same,transcription of the bile salt export pump,[4],enhances transcription of the bile salt export pump
same,constitutively active NF-κB in U266 and MDA 1986 cells,[5],completely inhibited this constitutively active NF-κB
same,number of Annexin V and TUNEL positive cells,[6],increased the number of Annexin V and TUNEL positive cells
same,"TNF-induced nuclear translocation of p65, Western blot",[7],abolished the TNF-induced nuclear translocation of p65
same,"TNF-induced nuclear translocation of p65, immunocytochemistry",[7],abrogated the p65 translocation
same,TNF-induced phosphorylation of p65,[7]; Western blot,suppressed p65 phosphorylation almost completely
same,caspase-induced cleavage of PARP activated by TNF,[8],enhanced the caspase-induced cleavage of PARP activated by TNF
